# Publication PMC10600247, “Impact of C- and N-terminal protection on the stability, metal chelation and antimicrobial properties of calcitermin” (Scientific Reports, 2023)
# Residues, ends and D or L forms follow the SMILES beside them.
# Assays:
# in vitro = details: human, pH 7.4
# Experimental: Each peptide (C = 1·10^–4 M) and metal complex (metal:ligand ratio 1:1) was incubated in a sample containing 1 ml of human plasma (obtained as a pool of 40 individuals from the University Hospital of Ferrara) and 1 ml of ammonium acetate buffer (pH 7.4) at 37 °C. L-phenylalaninol is added as internal standard. At regular time intervals, 200 μl aliquots were taken and enzymatic reaction was blocked by adding 300 μl of HClO4 0.5 M. The sample was then centrifugated for 6 min at 14,000 × g. The supernatant was then filtered and analysed by HPLC. The analytical column was an Agilent Poroshell 120 SB-C18 (4.6 × 100 mm, 2.7 μm, pore size 120 Å). Flow rate = 0.5 ml/min, mobile phase H2O + 0.1% v/v TFA, linear gradient from 0 to 60% of acetonitrile + 0.1% v/v TFA over 30 min for the elution of peptides, temperature 25 °C, detection wavelength 210 nm. […] Informed consent was obtained from all subjects and/or their legal guardian(s) prior to the donation of blood samples. All experimental protocols were approved by the National Research and Research Transversal Processes boards at University of Ferrara. All methods were carried out in accordance with relevant guidelines and regulations.
# C. albicans (ATCC 10231) = assay: In vitro antifungal CFU assay; format: cell-based, Candida albicans; details: pH 5.4; for mean CFU number ± S.D.: per 0.1 mL
# Experimental: (§1) All microbes were grown at 37 °C in Tryptic Soy Broth (TSB; Biolife, Milan, Italy) or Tryptic Soy Agar plates (TSA, Biolife, Milan, Italy). Peptides were tested at a final concentration C = 0.128, 0.064, 0.032 mg/mL, in the presence or absence of ZnCl2 or CuCl2, at a M:L molar ratio 0.9:1. Briefly, all the microbes were expanded in TSB at 37 °C under agitation for 12 h and then sub-cultured by 1:10 dilution in TSB under the same conditions until reaching OD600nm = 0.3–0.4, as measured by spectrophotometric reading using a GENESYS 10S UV–Vis spectrophotometer (Thermo Scientific, Milan, Italy), corresponding to 0.9–1.2 × 10^7 colony forming units (CFU) per mL, 1.5–2 × 10^8 CFU/mL and 2.4–3.2 × 10^8 CFU/mL, for C. albicans, S. aureus and E. coli respectively. The cultures were then centrifuged at 4500 rpm for 10 min in a SL 8 centrifuge (TX-150 Rotor) (Thermo Scientific, Milan, Italy), and the cellular pellets were washed with PBS pH 5.4. Pelletized cultures were then suspended in 10 mL of PBS pH 5.4, then the suspensions were diluted to a final concentration of 10^4 CFU/mL. Aliquots of 100 µl (corresponding to 10^3 CFU) were seeded in each well of a 96-wells plate. 3 µl of TSB at pH 5.4 were added to each well to obtain a final 1.5% TSB concentration in the culture medium. Peptides were serially diluted in PBS pH 5.4 to C = 0.257, 0.128, and 0.064 mg/mL. ZnCl2 and CuCl2 solutions were added where requested to obtain a M:L ratio 0.9:1. 100 µl of the prepared peptides ± ZnCl2/CuCl2 solutions were then added to each well, obtaining the final 0.128, 0.064 and 0.032 mg/mL peptide concentrations in a total 0.2 mL volume. PBS alone and PBS + ZnCl2/CuCl2 solutions were included as controls. The plates were incubated at 37 °C on a platform rocker with slow stirring for 3 and 24 h. At the end of the incubation times, 100 µl aliquots were taken from each sample and diluted in PBS pH 5.4 to be seeded on TSA plates. Specifically, aliquots were diluted 1:10 at 3 h, and 1:200, 1:100,000 and 1:10 at 24 h, for C. albicans, E. coli, and S. aureus respectively. After incubation for 24 h at 37 °C, grown CFUs were enumerated. Samples were assayed in triplicate in two independent experiments. Student’s t-test was used for the evaluation of significance in biological tests; a p value ≤ 0.05 was considered significant.
# S. aureus (ATCC 25293) = assay: In vitro anti-S. aureus CFU assay; format: cell-based, Staphylococcus aureus; details: 3 h, pH 5.4; for mean CFU number ± S.D.: per 0.1 mL
# Experimental: as §1
# [1] = peptide 0.032 mg/mL + CuCl2 (0.9:1), 3 h
# [2] = peptide 0.032 mg/mL + CuCl2 (0.9:1), 24 h
# [3] = peptide 0.032 mg/mL + ZnCl2 (0.9:1), 3 h
# [4] = peptide 0.032 mg/mL + ZnCl2 (0.9:1), 24 h
# [5] = peptide 0.064 mg/mL + CuCl2 (0.9:1), 3 h
# [6] = peptide 0.064 mg/mL + ZnCl2 (0.9:1), 3 h
# [7] = peptide 0.128 mg/mL + CuCl2 (0.9:1), 3 h
# [8] = peptide alone 0.032 mg/mL, 24 h
# [9] = peptide alone 0.064 mg/mL, 24 h
# [10] = peptide alone 0.128 mg/mL, 24 h
# [11] = peptide 0.032 mg/mL + CuCl2 (0.9:1)
# [12] = peptide 0.032 mg/mL + ZnCl2 (0.9:1)
# [13] = peptide 0.064 mg/mL + CuCl2 (0.9:1)
# [14] = peptide 0.064 mg/mL + ZnCl2 (0.9:1)
# [15] = peptide 0.128 mg/mL + CuCl2 (0.9:1)
smiles,measurement,setting,value
"CC[C@H](C)[C@H](NC(=O)[C@H](C)NC(=O)[C@@H](NC(C)=O)C(C)C)C(=O)N[C@@H](C)C(=O)N[C@@H](CC(C)C)C(=O)N[C@@H](CCCCN)C(=O)N[C@@H](C)C(=O)N[C@@H](C)C(=O)N[C@@H](Cc1c[nH]cn1)C(=O)N[C@@H](Cc1ccc(O)cc1)C(=O)N[C@@H](Cc1c[nH]cn1)C(=O)N[C@H](C(=O)N[C@@H](Cc1c[nH]cn1)C(=O)N[C@@H](CCCCN)C(=O)N[C@@H](CCC(=O)O)C(N)=O)[C@@H](C)O [L2, Ac-VAIALKAAHYHTHKE-NH2] (Ac-VAIALKAAHYHTHKE-NH2)",half-life,in vitro,~1.13 h
same,CFU decrease/increase with respect to untreated controls,C. albicans (ATCC 10231); [1],+9.3%
same,mean CFU number ± S.D.,C. albicans (ATCC 10231); [1],153 ± 26 CFU
same,CFU decrease/increase with respect to untreated controls,C. albicans (ATCC 10231); [2],+16%
same,mean CFU number ± S.D.,C. albicans (ATCC 10231); [2],"1,908 ± 83 CFU"
same,CFU decrease/increase with respect to untreated controls,C. albicans (ATCC 10231); [3],-7.8%
same,mean CFU number ± S.D.,C. albicans (ATCC 10231); [3],129 ± 17 CFU
same,CFU decrease/increase with respect to untreated controls,C. albicans (ATCC 10231); [4],+14%
same,mean CFU number ± S.D.,C. albicans (ATCC 10231); [4],"1,873 ± 83 CFU"
same,CFU decrease/increase with respect to untreated controls,C. albicans (ATCC 10231); [5],+29%
same,mean CFU number ± S.D.,C. albicans (ATCC 10231); [5],180 ± 81 CFU
same,mean CFU number ± S.D.,"C. albicans (ATCC 10231); peptide 0.064 mg/mL + CuCl2 (0.9:1), 24 h","1,360 ± 140 CFU"
same,CFU decrease/increase with respect to untreated controls,C. albicans (ATCC 10231); [6],-44%
same,mean CFU number ± S.D.,C. albicans (ATCC 10231); [6],79 ± 18 CFU
same,mean CFU number ± S.D.,"C. albicans (ATCC 10231); peptide 0.064 mg/mL + ZnCl2 (0.9:1), 24 h",881 ± 99 CFU
same,CFU decrease/increase with respect to untreated controls,C. albicans (ATCC 10231); [7],-7%
same,mean CFU number ± S.D.,C. albicans (ATCC 10231); [7],130 ± 29 CFU
same,mean CFU number ± S.D.,"C. albicans (ATCC 10231); peptide 0.128 mg/mL + CuCl2 (0.9:1), 24 h","1,256 ± 129 CFU"
same,mean CFU number ± S.D.,"C. albicans (ATCC 10231); peptide 0.128 mg/mL + ZnCl2 (0.9:1), 3 h",36 ± 15 CFU
same,mean CFU number ± S.D.,"C. albicans (ATCC 10231); peptide 0.128 mg/mL + ZnCl2 (0.9:1), 24 h",50 ± 29 CFU
same,CFU decrease/increase with respect to untreated controls,"C. albicans (ATCC 10231); peptide alone 0.032 mg/mL, 3 h",+51%
same,mean CFU number ± S.D.,"C. albicans (ATCC 10231); peptide alone 0.032 mg/mL, 3 h",211 ± 25 CFU
same,CFU decrease/increase with respect to untreated controls,C. albicans (ATCC 10231); [8],-5%
same,mean CFU number ± S.D.,C. albicans (ATCC 10231); [8],"1,563 ± 72 CFU"
same,CFU decrease/increase with respect to untreated controls,"C. albicans (ATCC 10231); peptide alone 0.064 mg/mL, 3 h",+20%
same,mean CFU number ± S.D.,"C. albicans (ATCC 10231); peptide alone 0.064 mg/mL, 3 h",168 ± 14 CFU
same,CFU decrease/increase with respect to untreated controls,C. albicans (ATCC 10231); [9],-10%
same,mean CFU number ± S.D.,C. albicans (ATCC 10231); [9],"1,480 ± 198 CFU"
same,CFU decrease/increase with respect to untreated controls,"C. albicans (ATCC 10231); peptide alone 0.128 mg/mL, 3 h",+5.7%
same,mean CFU number ± S.D.,"C. albicans (ATCC 10231); peptide alone 0.128 mg/mL, 3 h",148 ± 24 CFU
same,CFU decrease/increase with respect to untreated controls,C. albicans (ATCC 10231); [10],+6%
same,mean CFU number ± S.D.,C. albicans (ATCC 10231); [10],"1,732 ± 249 CFU"
same,CFU decrease/increase with respect to untreated controls,S. aureus (ATCC 25293); [11],-17%
same,mean CFU number ± S.D.,S. aureus (ATCC 25293); [11],129± 41 CFU
same,CFU decrease/increase with respect to untreated controls,S. aureus (ATCC 25293); [12],0%
same,mean CFU number ± S.D.,S. aureus (ATCC 25293); [12],177 ± 11 CFU
same,CFU decrease/increase with respect to untreated controls,S. aureus (ATCC 25293); [13],-18%
same,mean CFU number ± S.D.,S. aureus (ATCC 25293); [13],127 ± 30 CFU
same,CFU decrease/increase with respect to untreated controls,S. aureus (ATCC 25293); [14],-17%
same,mean CFU number ± S.D.,S. aureus (ATCC 25293); [14],147 ± 16 CFU
same,CFU decrease/increase with respect to untreated controls,S. aureus (ATCC 25293); [15],+6%
same,mean CFU number ± S.D.,S. aureus (ATCC 25293); [15],194 ± 4 CFU
same,mean CFU number ± S.D.,S. aureus (ATCC 25293); peptide 0.128 mg/mL + ZnCl2 (0.9:1),82 ± 16 CFU
same,CFU decrease/increase with respect to untreated controls,S. aureus (ATCC 25293); peptide alone 0.032 mg/mL,-12%
same,mean CFU number ± S.D.,S. aureus (ATCC 25293); peptide alone 0.032 mg/mL,157 ± 35 CFU
same,CFU decrease/increase with respect to untreated controls,S. aureus (ATCC 25293); peptide alone 0.064 mg/mL,+14%
same,mean CFU number ± S.D.,S. aureus (ATCC 25293); peptide alone 0.064 mg/mL,201 ± 40 CFU
same,CFU decrease/increase with respect to untreated controls,S. aureus (ATCC 25293); peptide alone 0.128 mg/mL,+21%
same,mean CFU number ± S.D.,S. aureus (ATCC 25293); peptide alone 0.128 mg/mL,213 ± 23 CFU
